Here are results for seven compounds from patent US8512958B2, “Methods of identifying agents that modulate mitochondrial function” (The J. David Gladstone Institutes, priority 2005, dated 2013).

Entries after “also recorded” stand apart in the source; their conditions may differ.

For test [1], the system named is differentiated PC12 cells. The test is described as follows: Time-lapse recording of mitochondrial motility and morphology in neurites of differentiated PC12 cells (exogenous agents). The conditions noted are these: for mitochondrial motility, increase: nimodipine 5 μM together with AP5 50 μM, with or without apoE forms.
The next test deals with Neuro-2a cells. The test is described as follows: MTT cell survival assay of Neuro-2a cells transiently transfected with apoE4 cDNA constructs. It is filed as cell-based, mouse. The following applies: expressed in Neuro-2a cells, MTT assay 48 h after transfection. As to the method:
Cell Culture and Transfection. […] ApoE4 expression levels were determined by anti-apoE western blotting of cell lysates and media. […] Thus, the results are not due to overexpression.
Cell Survival. […] Cell survival was estimated with an MTT colorimetric assay (52) 48 h after transfection.

The subject of test [2] is rat primary hippocampal neurons. The experiment in a line: Dendritic spine density (EGFP-β-actin, confocal microscopy) in primary hippocampal neurons. It is filed as cell-based. The following applies: apoE 7.5 μg/ml, 24 h. The method, then: (§1) Cortices or hippocampi from neonatal rat pups were dissected and treated with papain (10 units ml^−1, 30 min; Worthington Biochemical, Lakewood, N.J.) and the with trypsin inhibitor (10 mg ml^−1, 15 min). Dissociated neurons were plated on 12-mm glass coverslips (Fisher Scientific, Hampton, N.H.) (8×10^5 cells per cm^2) coated with poly-L-lysine. After 2 h, cells were transferred into Neurobasal medium supplemented with B27, 1 mM L-glutamine, and 100 μg/ml penicillin/streptomycin (Invitrogen). Neurons were routinely transfected after 10 days in culture and used for experiments 5-7 days after transfection. Cells were maintained in a humidified incubator with 5% CO2 at 37° C.
(§2) Confocal Microscopy. Cultured primary neurons treated with various forms of apoE were fixed for 20 min in ice-cold 4% paraformaldehyde in PBS and mounted with Vectashield (Vector Laboratories Burlingame, Calif.). Digital images of EGFP and dsRed fluorescence in primary neurons were collected on a laser-scanning confocal microscope with a Bio-Rad Radiance 2000 scanhead (Bio-Rad, Hercules, Calif.) mounted on a BX60 microscope (Olympus, Melville, N.Y.) with a 60× oil objective.
To assess the effect of exogenous apoE on dendritic spine density, rat primary cortical and hippocampal neurons, which had been cultured for 14-17 days in vitro, were incubated with different forms of apoE (7.5 μg/ml) for 24 h. […]

In test [3] the test system is rat primary cortical neurons. The test is described as follows: Dendritic spine density (EGFP-β-actin, confocal microscopy) in primary cortical neurons. It is filed as cell-based. As to the method: as §1
Neuronal activation and inhibition.
as §2
To assess the effect of exogenous apoE on dendritic spine density, rat primary cortical and hippocampal neurons, which had been cultured for 14-17 days in vitro, were incubated with different forms of apoE (7.5 μg/ml) for 24 h. Four to six days before the experiment, the cells were transfected with EGFP-tagged β-actin (EGFP-β-actin), a cytoskeletal protein that is abundant in dendritic spines. […] Other measures of neuronal complexity (e.g., dendritic field and length of dendritic extensions) were not affected by any form of apoE. […] FIGS. 12A and 12B. […] (a) Confocal micrographs of synaptic EGFP-β-actin fluorescence in dendrites of rat primary cortical and hippocampal neurons (16 days in vitro) incubated for 24 h with or without (control) various forms of apoE (7.5 μg/ml). Scale bar=5 μm. (b) Number of spines per μm of dendritic extension. […]

The subject of test [4] is dendrites of primary cortical neurons. The test is described as follows: Number, size and occupancy of mitochondria in dendrites of primary cortical neurons. The following applies: primary neurons treated with apoE. In kind it is cell-based, rat.
Setting [5] is: repetitive depolarization with KCl 90 mM, 4×3 min.
Setting [6] is: cortical neurons, apoE 7.5 μg/ml, 24 h.

With `NC(CCCP(=O)(O)O)C(=O)O` (centres unmarked) [AP5, 2-amino-5-phosphonovalerate], the “mitochondrial motility, increase” value in test [1] (24 h) is listed as “about 30%”.
Regarding `[Cl-].[K+]` [KCl], in test [1] (setting [5]), the “average moving velocity (moving distance/15 min) in the anterograde direction” value is listed as “drastically reduced”, the “mitochondrial moving velocity (moving distance/time moving)” value is listed as “unaltered; also recorded: did not affect”, the “net moving distance in the anterograde direction” value is given as “drastically reduced” and the “retrograde motility (toward the soma)” value was “No significant changes”. Besides, the “mitochondrial index, reduced” value in test [1] (repetitive depolarizations with KCl (4×, 90 mM)) amounted to 22.5%.
Turning to `NC1=N[C@H](O)[C@H]2[C@H]3O[C@]4(O)O[C@@H]([C@@H](O)[C@@]2(N1)[C@@H]4O)[C@]3(O)CO` [TTX, tetrodotoxin], in test [1], the mitochondrial dynamics result was “increased” and the mitochondrial index entry was “without affecting; also recorded: not affected”.
On to `COCCOC(=O)C1=C(C)NC(C)=C(C(=O)OC(C)C)C1c1cccc([N+](=O)[O-])c1` (centres unmarked) [nimodipine], for which, in test [1] (24 h), the “mitochondrial motility, increase” value is “about 30%”.
As for “L279Q: full-length WT apoE4 with single mutation L279Q”, the neurotoxicity entry in the test on Neuro-2a cells was “as neurotoxic as apoE4(1-272)”.
For the compound “Q284A: full-length WT apoE4 with single mutation Q284A”, the neurotoxicity entry in the test with Neuro-2a cells is on record as “as neurotoxic as apoE4(1-272)”.
Take “apoE4: Human apolipoprotein E4 isoform, 299 amino acids (SEQ ID NO:1); recombinant or expressed”: in test [2], the “density of dendritic spines, decrease compared with controls” value was 19±5% and the “density of dendritic spines, reduction compared with apoE3” value is 28±4%. Moreover, in test [3] (setting [6]), the “density of dendritic spines, decrease compared with controls” value turned out to be 13±5% and the “density of dendritic spines, reduction compared with apoE3” value came to 27±5%. Further, the “spinal density in response to neuronal activation, reduced as compared to controls” value in test [3] (primary cortical neurons, apoE 7.5 μg/ml 24 h, repetitive KCl depolarization) stood at 48±11%. Further, in test [4], the “number of mitochondria at dendritic spines compared with apoE3-treated cells or controls” value is on record as “many fewer”. Moreover, the “extent of the mitochondrial motility response to neuronal activation, reduced to” value in test [1] (apoE 7.5 μg/ml 24 h, then repetitive depolarizations with KCl) is 30%. In addition, in test [1] (exogenous apoE 7.5 μg/ml, 24 h), the average mitochondrial length entry is “significantly reduced” and the “retrograde velocity / retrograde direction motility” value was “unaffected”.
